Earlier results in patent US6974588B1, “Transdermal patch for delivering volatile liquid drugs” (Elan Pharma International Limited, priority 1999, dated 2005).

Tested on: nicotine dependence
Conditions: oral administration, literature report

In the case of CNC1(C)C2CCC(C2)C1(C)C (stereo not shown) [oral mecamylamine, mecamylamine], the “ad hoc cigarette consumption” value is listed as “increased”.
